# Measured values published in ChEMBL document CHEMBL1201862, “PubChem BioAssay data set” (2004).
# The source made the active and inactive calls.
# Columns and labels:
# [1] = molecular target: Voltage-dependent T-type calcium channel subunit alpha-1H (Homo sapiens, UniProt O95180); type: functional;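 further: channel activity triggered by adding a high calcium stimulation buffer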
# [2] = molecular target: Melanin-concentrating hormone receptor 1 (Homo sapiens, UniProt Q99705); test: Late-stage fluorescence-based counterscreen for antagonists of the G-protein coupled receptor 7 (GPR7): cell-based dose response assay to identify antagonists of the melanin-concentrating hormone receptor 1 (MCHR1). [Related pubchem assays (depositor defined):AID1861, AID1880, AID1952, AID2148, AID2251, AID2257, AID485339]; type: functional;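 further: stimulated with 30 nM MCH peptide agonist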
# Melanin-concentrating hormone receptor 1, sequence (Q99705 whole entry): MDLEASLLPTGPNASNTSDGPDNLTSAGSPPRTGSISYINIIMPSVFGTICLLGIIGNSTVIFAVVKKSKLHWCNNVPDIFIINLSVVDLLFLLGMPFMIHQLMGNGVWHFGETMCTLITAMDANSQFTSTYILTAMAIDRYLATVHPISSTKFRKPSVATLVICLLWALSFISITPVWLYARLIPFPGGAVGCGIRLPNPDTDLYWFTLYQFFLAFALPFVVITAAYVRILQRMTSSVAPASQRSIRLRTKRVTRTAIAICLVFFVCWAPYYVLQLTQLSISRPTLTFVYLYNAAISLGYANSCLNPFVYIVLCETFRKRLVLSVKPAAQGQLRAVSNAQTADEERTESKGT
# [3] = molecular target: T1, Short transient receptor potential channel 4 (Mus musculus, UniProt Q9QUQ5); test: block of DAMGO-driven TRPC4 calcium entry – cell-based, HEK293 TRPC4/mu-opioid, Fluo-4 calcium, dose response (AID 434942); type: functional;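 further: potency of inhibitors blocking the TRPC4 calcium response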
# T1 sequence (Q9QUQ5 whole entry): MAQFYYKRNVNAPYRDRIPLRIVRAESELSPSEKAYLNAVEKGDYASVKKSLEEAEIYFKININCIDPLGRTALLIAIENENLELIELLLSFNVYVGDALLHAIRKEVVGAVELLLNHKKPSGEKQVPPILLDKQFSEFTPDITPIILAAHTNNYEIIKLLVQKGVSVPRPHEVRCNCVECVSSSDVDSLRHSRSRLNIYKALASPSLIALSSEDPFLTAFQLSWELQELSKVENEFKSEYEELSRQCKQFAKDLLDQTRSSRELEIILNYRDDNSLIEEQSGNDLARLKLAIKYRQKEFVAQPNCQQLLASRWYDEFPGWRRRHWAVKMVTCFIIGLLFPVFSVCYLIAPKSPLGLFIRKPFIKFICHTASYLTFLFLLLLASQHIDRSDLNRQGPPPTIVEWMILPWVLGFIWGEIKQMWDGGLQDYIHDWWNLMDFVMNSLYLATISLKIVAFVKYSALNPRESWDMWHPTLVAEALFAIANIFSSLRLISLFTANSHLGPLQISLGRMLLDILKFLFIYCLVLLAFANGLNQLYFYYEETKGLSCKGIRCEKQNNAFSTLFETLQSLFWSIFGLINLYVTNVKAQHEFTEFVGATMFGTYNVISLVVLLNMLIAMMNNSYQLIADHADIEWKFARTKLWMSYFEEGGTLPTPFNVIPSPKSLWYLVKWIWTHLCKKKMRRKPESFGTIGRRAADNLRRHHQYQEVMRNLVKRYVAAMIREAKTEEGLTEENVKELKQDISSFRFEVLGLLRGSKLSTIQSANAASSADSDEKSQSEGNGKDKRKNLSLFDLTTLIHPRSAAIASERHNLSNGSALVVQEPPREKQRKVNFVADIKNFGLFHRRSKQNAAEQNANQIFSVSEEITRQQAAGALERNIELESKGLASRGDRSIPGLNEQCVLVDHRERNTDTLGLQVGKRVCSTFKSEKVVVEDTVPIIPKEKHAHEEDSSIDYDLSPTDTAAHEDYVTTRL
# Aminopeptidase N = molecular target: T2, Aminopeptidase N (Plasmodium falciparum FcB1/Columbia, UniProt O96935); test: malaria alanyl aminopeptidase activity blockers – biochemical, fluorogenic H-Leu-NHMec substrate, 1536-well (AID 1445); set-up: species or system Plasmodium falciparum 3D7, 3D7
# T2 sequence (O96935 whole entry): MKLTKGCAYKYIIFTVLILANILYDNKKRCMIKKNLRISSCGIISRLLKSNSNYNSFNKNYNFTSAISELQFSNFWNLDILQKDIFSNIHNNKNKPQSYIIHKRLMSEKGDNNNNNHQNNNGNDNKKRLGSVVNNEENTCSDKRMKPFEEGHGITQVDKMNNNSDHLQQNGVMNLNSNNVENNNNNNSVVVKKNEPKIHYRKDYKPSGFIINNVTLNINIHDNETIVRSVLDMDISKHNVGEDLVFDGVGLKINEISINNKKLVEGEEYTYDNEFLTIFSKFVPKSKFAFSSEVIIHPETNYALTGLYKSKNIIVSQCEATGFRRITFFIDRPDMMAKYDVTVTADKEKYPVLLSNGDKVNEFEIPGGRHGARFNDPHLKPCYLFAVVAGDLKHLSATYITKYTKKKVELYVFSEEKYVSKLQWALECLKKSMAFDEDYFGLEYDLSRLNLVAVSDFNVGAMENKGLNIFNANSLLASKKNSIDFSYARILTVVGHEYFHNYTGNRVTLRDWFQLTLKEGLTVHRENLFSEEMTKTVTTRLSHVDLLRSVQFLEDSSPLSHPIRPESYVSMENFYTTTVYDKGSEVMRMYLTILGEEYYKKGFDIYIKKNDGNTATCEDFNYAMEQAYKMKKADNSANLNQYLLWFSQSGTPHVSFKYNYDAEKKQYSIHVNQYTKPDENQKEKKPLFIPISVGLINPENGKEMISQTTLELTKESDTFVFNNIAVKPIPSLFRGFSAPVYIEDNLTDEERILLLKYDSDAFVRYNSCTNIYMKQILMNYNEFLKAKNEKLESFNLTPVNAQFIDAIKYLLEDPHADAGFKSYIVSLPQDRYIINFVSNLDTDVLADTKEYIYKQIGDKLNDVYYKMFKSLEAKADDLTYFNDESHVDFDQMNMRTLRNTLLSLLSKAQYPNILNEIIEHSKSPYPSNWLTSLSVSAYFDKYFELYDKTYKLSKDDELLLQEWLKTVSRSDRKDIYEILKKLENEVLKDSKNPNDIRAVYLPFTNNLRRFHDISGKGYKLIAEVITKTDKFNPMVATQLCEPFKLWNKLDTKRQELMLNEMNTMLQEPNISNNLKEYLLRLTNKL
# [4] = molecular target: Photoreceptor-specific nuclear receptor (Homo sapiens, UniProt Q9Y5X4); type: functional;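 further: potency for compounds that break the NR2E3 corepressor complex and count as activators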
# Photoreceptor-specific nuclear receptor, sequence (Q9Y5X4 whole entry, the tested form may be a part): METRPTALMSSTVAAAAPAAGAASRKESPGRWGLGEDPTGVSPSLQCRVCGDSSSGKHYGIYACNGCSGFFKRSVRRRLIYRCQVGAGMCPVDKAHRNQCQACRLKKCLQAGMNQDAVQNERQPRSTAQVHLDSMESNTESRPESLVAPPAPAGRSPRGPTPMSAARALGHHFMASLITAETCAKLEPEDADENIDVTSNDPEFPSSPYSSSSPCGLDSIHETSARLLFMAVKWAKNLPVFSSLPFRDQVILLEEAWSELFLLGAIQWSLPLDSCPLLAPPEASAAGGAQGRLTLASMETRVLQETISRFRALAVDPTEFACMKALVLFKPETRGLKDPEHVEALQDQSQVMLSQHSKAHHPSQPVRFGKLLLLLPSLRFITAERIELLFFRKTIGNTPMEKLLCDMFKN
# [5] = molecular target: T3, RNA-binding protein pos-1 (Caenorhabditis elegans, UniProt G5EF15); test: disruptors of C. elegans POS-1 RNA interaction – biochemical, fluorescence polarization, dose response (AID 1964);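 further: purified POS-1 fused to maltose binding protein made in E. coli; potency of compounds blocking POS-1 binding to fluorescent RNA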
# T3 sequence (G5EF15 whole entry): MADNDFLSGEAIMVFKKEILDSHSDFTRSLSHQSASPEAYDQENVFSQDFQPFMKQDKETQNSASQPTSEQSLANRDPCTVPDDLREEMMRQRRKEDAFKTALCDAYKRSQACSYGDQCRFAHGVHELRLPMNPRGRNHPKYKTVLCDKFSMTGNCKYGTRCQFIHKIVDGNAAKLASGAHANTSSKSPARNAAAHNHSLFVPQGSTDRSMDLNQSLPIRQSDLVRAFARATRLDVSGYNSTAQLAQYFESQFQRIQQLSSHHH
# [6] = molecular target: T4, Zinc finger protein mex-5 (Caenorhabditis elegans, UniProt Q9XUB2); test: potency of MEX-5 RNA-binding blockers – biochemical, C. elegans, fluorescence polarization, dose response (AID 1960)
# T4 sequence (Q9XUB2 whole entry): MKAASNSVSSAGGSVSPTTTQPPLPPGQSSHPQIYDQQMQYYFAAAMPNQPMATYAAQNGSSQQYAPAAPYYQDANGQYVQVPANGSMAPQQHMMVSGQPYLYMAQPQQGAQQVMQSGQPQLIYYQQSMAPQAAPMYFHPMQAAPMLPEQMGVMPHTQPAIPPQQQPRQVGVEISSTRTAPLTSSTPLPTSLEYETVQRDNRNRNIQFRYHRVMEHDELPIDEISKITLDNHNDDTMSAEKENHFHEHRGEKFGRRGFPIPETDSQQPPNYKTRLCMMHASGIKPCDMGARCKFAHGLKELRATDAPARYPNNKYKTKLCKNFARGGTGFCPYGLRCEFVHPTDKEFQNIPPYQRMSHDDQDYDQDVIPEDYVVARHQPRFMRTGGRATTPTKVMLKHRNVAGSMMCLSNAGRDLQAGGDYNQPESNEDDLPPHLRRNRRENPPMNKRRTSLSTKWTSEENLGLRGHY
# [7] = molecular target: Peroxisome proliferator-activated receptor gamma/Nuclear receptor corepressor 2 (Homo sapiens, UniProt P37231+Q9Y618); type: functional
# Genome polyprotein = Genome polyprotein (dengue virus type 2, UniProt P29990); test: flavivirus cap methylation enzyme inhibition – biochemical, confirmation dose response, primary screen (AID 588689); type: functional
# Genome polyprotein, sequence (P29990 2492-3391 limits assumed): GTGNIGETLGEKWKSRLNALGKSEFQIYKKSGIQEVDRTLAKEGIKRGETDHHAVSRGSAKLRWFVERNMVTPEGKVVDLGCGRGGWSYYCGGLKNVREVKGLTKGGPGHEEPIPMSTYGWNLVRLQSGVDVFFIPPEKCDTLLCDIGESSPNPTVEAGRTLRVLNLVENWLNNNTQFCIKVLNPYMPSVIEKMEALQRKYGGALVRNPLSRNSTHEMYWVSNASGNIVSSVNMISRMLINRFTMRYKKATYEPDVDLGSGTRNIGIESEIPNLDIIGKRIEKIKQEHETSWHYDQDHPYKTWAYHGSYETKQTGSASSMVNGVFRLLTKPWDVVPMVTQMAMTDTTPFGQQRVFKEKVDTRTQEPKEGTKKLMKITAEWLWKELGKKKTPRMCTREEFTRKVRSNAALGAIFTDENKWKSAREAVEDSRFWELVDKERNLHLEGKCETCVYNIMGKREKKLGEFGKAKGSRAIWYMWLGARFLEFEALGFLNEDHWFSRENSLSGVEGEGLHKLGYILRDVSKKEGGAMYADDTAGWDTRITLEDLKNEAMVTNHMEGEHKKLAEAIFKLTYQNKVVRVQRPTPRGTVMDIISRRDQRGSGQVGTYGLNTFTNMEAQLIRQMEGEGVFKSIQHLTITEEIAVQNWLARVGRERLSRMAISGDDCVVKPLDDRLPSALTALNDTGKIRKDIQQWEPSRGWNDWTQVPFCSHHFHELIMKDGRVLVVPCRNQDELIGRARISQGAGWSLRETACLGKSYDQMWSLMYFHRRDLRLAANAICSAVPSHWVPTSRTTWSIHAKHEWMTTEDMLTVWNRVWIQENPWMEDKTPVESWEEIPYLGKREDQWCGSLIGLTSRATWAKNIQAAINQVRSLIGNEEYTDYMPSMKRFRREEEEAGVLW
# cells [8] = type: functional, cell-based
# [9] = molecular target: T5, Trace amine-associated receptor 1 (Homo sapiens, UniProt Q96RJ0); test: Fluorescence-based cell-based high throughput dose response assay to identify agonists of the human trace amine associated receptor 1 (TAAR1).; type: functional
# T5 sequence (Q96RJ0 whole entry): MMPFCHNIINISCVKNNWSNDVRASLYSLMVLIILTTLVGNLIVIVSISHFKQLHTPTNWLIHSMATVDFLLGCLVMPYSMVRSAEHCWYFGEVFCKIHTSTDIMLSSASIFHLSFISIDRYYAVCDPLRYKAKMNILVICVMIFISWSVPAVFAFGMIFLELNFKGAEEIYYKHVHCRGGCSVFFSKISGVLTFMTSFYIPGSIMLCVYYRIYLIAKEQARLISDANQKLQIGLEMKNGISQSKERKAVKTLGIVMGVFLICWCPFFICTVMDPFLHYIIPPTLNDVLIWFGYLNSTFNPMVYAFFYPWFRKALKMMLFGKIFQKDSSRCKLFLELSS
# [10] = molecular target: T5, Trace amine-associated receptor 1; test: Counterscreen for agonists of the human trace amine associated receptor 1 (hTAAR1): Fluorescence-based cell-based high throughput dose response assay to identify hTAAR1 agonist that also desensitize TAAR1 receptor response.; type: functional
# cells [11] = type: functional, cell-based; remark: listed apart in the source
# Leucine aminopeptidase = molecular target: T6, Leucine aminopeptidase (Plasmodium falciparum 3D7, UniProt Q8IL11); test: P. falciparum M17LAP inhibitors, primary screen, biochemical, fluorogenic H-Leu-NHMec substrate, 1536-well (AID 1619); type: functional
# T6 sequence (Q8IL11 whole entry): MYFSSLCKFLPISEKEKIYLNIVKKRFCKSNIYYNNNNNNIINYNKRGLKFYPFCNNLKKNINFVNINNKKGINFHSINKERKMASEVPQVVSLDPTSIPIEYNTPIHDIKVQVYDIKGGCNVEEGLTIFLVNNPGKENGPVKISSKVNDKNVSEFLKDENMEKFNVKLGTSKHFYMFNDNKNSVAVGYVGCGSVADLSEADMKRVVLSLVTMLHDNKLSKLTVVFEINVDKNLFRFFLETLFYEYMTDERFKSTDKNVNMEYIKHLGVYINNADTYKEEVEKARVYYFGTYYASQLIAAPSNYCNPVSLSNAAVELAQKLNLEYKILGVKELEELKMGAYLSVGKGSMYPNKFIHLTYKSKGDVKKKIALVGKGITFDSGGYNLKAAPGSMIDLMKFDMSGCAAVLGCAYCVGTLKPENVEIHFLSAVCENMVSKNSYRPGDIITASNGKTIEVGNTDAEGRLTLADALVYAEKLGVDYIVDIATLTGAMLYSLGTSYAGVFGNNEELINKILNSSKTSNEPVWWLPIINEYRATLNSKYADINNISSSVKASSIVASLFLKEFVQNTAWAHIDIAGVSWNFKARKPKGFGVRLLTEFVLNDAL
# SUMO-activating enzyme [12] = molecular target: T7, SUMO-activating enzyme (Homo sapiens, UniProt Q9UBT2); test: blockers of UBC9-mediated SUMO conjugation – biochemical, AlphaScreen, SUMOylation inhibitor project, confirmation (AID 2018); type: functional
# T7 sequence (Q9UBE0 whole entry): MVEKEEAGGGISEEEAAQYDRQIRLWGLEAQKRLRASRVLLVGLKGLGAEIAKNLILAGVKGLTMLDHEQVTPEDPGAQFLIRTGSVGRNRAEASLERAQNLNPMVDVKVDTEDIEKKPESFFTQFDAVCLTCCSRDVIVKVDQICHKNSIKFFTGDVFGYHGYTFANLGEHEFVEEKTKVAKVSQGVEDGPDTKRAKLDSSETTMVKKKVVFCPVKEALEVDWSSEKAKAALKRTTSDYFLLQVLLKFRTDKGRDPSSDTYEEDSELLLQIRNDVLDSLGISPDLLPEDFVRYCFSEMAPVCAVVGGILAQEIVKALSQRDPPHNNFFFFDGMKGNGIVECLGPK
# T7 sequence (Q9UBT2 whole entry): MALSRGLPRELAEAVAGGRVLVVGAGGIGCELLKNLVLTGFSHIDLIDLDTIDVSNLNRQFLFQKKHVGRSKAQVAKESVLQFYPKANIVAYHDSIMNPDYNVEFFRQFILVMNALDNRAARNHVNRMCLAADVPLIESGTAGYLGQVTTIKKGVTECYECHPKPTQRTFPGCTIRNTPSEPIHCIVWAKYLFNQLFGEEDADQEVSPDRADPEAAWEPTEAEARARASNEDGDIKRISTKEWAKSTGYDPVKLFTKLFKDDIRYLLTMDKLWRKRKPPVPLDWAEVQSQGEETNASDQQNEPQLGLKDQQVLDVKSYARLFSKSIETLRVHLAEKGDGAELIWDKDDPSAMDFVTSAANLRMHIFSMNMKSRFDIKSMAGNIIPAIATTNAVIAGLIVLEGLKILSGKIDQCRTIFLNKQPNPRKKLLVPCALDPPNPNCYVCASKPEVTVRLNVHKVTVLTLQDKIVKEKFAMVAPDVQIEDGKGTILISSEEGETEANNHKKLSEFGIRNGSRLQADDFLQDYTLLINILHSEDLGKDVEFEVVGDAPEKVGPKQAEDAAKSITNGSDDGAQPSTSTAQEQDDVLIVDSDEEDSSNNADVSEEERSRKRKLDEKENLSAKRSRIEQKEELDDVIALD
# SUMO-activating enzyme [13] = molecular target: T7, SUMO-activating enzyme; test: blockers of SAE1/SAE2–UBC9 SUMO transfer – biochemical, HTRF, uHTS, primary screen (AID 2006); type: protein-complex assay
# [14] = molecular target: T8, Calpain-2 catalytic subunit (Sus scrofa, UniProt P43367); test: m-calpain protease blockers, concentration series – biochemical, fluorogenic peptide substrate, dose response (AID 1420); type: functional
# T8 sequence (P43367 whole entry): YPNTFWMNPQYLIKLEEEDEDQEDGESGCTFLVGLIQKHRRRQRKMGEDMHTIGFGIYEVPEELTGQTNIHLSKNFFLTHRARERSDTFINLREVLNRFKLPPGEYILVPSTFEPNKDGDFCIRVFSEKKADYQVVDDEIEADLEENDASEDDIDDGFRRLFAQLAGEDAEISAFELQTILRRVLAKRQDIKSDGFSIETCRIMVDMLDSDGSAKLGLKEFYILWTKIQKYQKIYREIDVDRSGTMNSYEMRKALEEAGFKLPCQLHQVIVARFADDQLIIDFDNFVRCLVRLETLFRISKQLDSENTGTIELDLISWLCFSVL
# Voltage-dependent T-type calcium channel subunit alpha-1H, sequence (O95180 whole entry): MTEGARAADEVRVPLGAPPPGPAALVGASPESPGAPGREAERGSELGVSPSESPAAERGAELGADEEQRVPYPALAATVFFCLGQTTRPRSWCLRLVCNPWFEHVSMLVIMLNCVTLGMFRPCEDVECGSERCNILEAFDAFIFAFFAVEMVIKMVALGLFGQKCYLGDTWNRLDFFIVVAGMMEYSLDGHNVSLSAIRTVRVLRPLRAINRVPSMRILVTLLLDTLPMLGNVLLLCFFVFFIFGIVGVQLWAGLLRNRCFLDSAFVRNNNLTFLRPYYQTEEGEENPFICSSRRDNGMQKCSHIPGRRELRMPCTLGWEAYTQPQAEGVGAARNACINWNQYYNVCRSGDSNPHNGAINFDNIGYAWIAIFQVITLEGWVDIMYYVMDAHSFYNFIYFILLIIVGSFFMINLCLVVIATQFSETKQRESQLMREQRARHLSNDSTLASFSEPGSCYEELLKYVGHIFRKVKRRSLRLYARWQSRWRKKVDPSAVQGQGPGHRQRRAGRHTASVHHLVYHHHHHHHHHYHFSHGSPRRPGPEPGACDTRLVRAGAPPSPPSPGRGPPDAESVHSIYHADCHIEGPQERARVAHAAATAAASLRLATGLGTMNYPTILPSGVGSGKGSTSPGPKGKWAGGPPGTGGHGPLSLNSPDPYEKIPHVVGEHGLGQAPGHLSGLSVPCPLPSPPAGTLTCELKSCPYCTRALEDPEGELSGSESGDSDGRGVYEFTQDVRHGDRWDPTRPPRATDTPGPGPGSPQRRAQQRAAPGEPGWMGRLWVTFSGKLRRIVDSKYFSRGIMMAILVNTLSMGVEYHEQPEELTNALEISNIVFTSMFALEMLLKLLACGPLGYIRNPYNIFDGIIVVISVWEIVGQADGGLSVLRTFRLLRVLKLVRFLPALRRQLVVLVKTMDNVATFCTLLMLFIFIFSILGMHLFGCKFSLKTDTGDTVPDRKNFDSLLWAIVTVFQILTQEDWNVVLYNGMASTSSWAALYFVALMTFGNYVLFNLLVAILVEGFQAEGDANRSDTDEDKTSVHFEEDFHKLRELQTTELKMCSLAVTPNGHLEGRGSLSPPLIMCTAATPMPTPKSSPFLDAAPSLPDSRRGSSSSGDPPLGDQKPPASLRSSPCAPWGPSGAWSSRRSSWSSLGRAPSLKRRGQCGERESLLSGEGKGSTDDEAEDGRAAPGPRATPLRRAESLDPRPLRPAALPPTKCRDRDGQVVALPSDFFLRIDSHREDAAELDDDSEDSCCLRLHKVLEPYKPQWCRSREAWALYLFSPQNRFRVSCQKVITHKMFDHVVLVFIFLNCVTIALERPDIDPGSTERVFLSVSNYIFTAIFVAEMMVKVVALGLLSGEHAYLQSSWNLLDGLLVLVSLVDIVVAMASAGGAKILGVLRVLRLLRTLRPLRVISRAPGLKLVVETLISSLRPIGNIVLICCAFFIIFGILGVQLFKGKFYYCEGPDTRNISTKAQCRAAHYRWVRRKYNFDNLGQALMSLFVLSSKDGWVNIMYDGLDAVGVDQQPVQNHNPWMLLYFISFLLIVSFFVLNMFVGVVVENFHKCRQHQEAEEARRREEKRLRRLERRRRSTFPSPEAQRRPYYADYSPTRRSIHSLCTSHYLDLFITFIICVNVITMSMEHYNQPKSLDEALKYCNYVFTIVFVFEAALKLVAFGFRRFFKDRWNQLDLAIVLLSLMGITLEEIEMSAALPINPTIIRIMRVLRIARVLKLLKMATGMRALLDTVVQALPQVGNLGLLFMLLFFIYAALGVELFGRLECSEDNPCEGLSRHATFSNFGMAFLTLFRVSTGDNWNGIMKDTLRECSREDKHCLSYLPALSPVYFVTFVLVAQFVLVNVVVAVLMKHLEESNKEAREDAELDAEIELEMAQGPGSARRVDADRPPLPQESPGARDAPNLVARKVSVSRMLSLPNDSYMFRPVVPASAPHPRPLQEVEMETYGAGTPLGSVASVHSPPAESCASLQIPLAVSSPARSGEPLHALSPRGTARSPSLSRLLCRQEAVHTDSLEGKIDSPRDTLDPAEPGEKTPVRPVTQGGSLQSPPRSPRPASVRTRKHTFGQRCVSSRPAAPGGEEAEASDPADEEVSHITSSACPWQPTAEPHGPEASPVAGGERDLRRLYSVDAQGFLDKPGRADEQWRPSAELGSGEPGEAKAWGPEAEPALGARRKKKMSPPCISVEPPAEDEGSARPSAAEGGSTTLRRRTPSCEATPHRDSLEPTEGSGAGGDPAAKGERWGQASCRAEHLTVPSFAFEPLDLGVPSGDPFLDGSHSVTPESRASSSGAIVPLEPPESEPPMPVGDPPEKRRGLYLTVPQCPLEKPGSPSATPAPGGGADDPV
structure (smiles),measurement,setting,value
O=C(Cc1ccccc1F)Nc1nc(-c2cccs2)cs1,EC50,[1],1.98 µM (active)
CCc1cnn(-c2ccc(C(C)C)cc2)c(=O)c1Oc1ccc(OC)cc1,IC50,[2],12.8 µM (inactive)
O=C(Nc1ccccc1Oc1cccnc1)C1CCCN(Cc2cccc(Cl)c2)C1 (stereo not given),EC50,[3],3.76 µM (active)
COc1ccc(NC(=O)[C@@H](NC(=O)c2ccccc2)C(C)C)cc1S(=O)(=O)N1CCCCC1,IC50,Aminopeptidase N,39 µM (active)
Cc1ccc(N2CCN(C(=O)c3ccccc3F)CC2)c(C)c1,EC50,[3],5.96 µM (active)
O=C(Nc1ccc2c(c1)OCO2)C1CCN(S(=O)(=O)c2ccc3c(c2)OCCO3)CC1,IC50,Aminopeptidase N,45.7 µM (active)
COC(=O)c1c(Cl)c2n3ccccc3c(C)c(-c3ccccc3)c-2c1C(=O)OC,IC50,[4],303 nM (active)
same,EC50,[5],47.5 µM (active)
same,EC50,[6],25.8 µM (active)
same,IC50,[7],55.5 nM (active)
same,IC50,Genome polyprotein,74.5 µM (active)
CC1NC(=O)NC1CCCCCC(=O)NCCc1ccccc1 (stereo not given),IC50,[4],1060 nM (active)
same,IC50,[7],3010 nM (active)
same,IC50,cells [8],> 29.9 µM (inactive)
same,EC50,[9],1.93 µM (active)
same,IC50,[10],6.36 µM (active)
same,EC50,cells [11],> 29.9 µM (inactive)
O=C(CSc1n[nH]c2c3ccccc3nc-2n1)Nc1ccc(S(=O)(=O)Nc2ncccn2)cc1,IC50,Leucine aminopeptidase,28.3 µM (active)
same,IC50,Aminopeptidase N,61.6 µM (active)
CC(C)N(Cc1nc(-c2ccc(Cl)cc2)no1)C(=O)CCCN1C(=O)c2ccccc2C1=O,EC50,[1],3.89 µM (active)
O=c1c(C(c2ccccc2)c2c(O)sc3ccccc3c2=O)c(O)sc2ccccc12,IC50,SUMO-activating enzyme [12],4.11 µM (active)
same,IC50,SUMO-activating enzyme [13],11.3 µM (active)
same,IC50,[14],4.29 µM (not active)
COc1ccccc1N1CCN(CC(=O)Nc2ccc(Cl)c(C(F)(F)F)c2)CC1,EC50,[1],4.08 µM (active)
COc1ccc(Oc2c(C3CC3)cnn(-c3ccc(C)cc3)c2=O)cc1,IC50,[2],5.4 µM (active)
